Experimental data reported in ChEMBL document CHEMBL1201862, “PubChem BioAssay data set” (2004).
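Results reflect a 48-hour exposure of cells in 96-well plates to compound at five concentrations. GI50: concentration for 50% inhibition of growth.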 The source made the active and inactive calls. Cut-off read from the data, not from the text of the source: active = GI50 up to about 1.1 µM and inactive = higher. Where a SMILES comes first, the peptide text is derived from it. [ ]: non-standard residue; d: D form. Aoe = N[C@@H](CCCCCC(=O)[C@@H]1CO1)C(=O)O

Assays:
Assay in all cases: DTP human tumour cell line panel, 48 h
[1] = tested on: SN12C
[2] = tested on: 786-0
[3] = tested on: TK-10
[4] = tested on: UACC-257
[5] = tested on: CAKI-1
[6] = tested on: OVCAR-5
[7] = tested on: SF-295
[8] = tested on: Malme-3M
[9] = tested on: T47D
[10] = tested on: KM12
[11] = tested on: OVCAR-8
[12] = tested on: SK-MEL-5
[13] = tested on: RPMI-8226
[14] = tested on: HOP-92
[15] = tested on: SF-268
[16] = tested on: SNB-19
[17] = tested on: OVCAR-4
[18] = tested on: SK-OV-3
[19] = tested on: SK-MEL-2
[20] = tested on: A498
[21] = tested on: PC-3
[22] = tested on: EKVX
[23] = tested on: LOX IMVI
[24] = tested on: SW-620
[25] = tested on: UO-31
[26] = tested on: COLO 205
[27] = tested on: NCI-H522
[28] = tested on: M14
[29] = tested on: MDA-N
[30] = tested on: A549
[31] = tested on: HCT-15
[32] = tested on: HOP-62
[33] = tested on: UACC-62
[34] = tested on: RXF 393
[35] = tested on: K562
[36] = tested on: BT-549
[37] = tested on: SK-MEL-28
[38] = tested on: NCI/ADR-RES
[39] = tested on: ACHN
[40] = tested on: HCT-116
[41] = tested on: Hs-578T
[42] = tested on: MDA-MB-435
[43] = tested on: NCI-H23
[44] = tested on: IGROV-1
[45] = tested on: MDA-MB-231
[46] = tested on: CCRF-CEM
[47] = tested on: NCI-H226
[48] = tested on: DU-145
[49] = tested on: SNB-75
[50] = tested on: OVCAR-3
[51] = tested on: MOLT-4
[52] = tested on: U-251
[53] = tested on: MCF7
[54] = tested on: HCC 2998
[55] = tested on: NCI-H460
[56] = tested on: HT-29

Compound: CCOC(=O)/C=C1\c2ccccc2C(=O)N1CC(=O)OCC
- GI50 [1]: > 100 µM (inactive)
- GI50 [2]: > 100 µM (inactive)
- GI50 [3]: > 100 µM (inactive)
- GI50 [4]: > 100 µM (inactive)
- GI50 [5]: > 100 µM (inactive)
- GI50 [6]: > 100 µM (inactive)
- GI50 [7]: > 100 µM (inactive)
- GI50 [8]: > 100 µM (inactive)
- GI50 [9]: > 100 µM (inactive)
- GI50 [10]: > 100 µM (inactive)
- GI50 [11]: > 100 µM (inactive)
- GI50 [12]: > 100 µM (inactive)
- GI50 [13]: > 100 µM (inactive)
- GI50 [14]: 39.9 µM (inactive)
- GI50 [15]: > 100 µM (inactive)
- GI50 [16]: > 100 µM (inactive)
- GI50 [17]: > 100 µM (inactive)
- GI50 [18]: > 100 µM (inactive)
- GI50 [19]: > 100 µM (inactive)
- GI50 [20]: > 100 µM (inactive)
- GI50 [21]: > 100 µM (inactive)
- GI50 [22]: > 100 µM (inactive)
- GI50 [23]: 75.5 µM (inactive)
- GI50 [24]: > 100 µM (inactive)
- GI50 [25]: > 100 µM (inactive)
- GI50 [26]: > 100 µM (inactive)
- GI50 [27]: > 100 µM (inactive)
- GI50 [28]: > 100 µM (inactive)
- GI50 [29]: > 100 µM (inactive)
- GI50 [30]: > 100 µM (inactive)
- GI50 [31]: > 100000 nM
- GI50 [32]: > 100 µM (inactive)
- GI50 [33]: > 100 µM (inactive)
- GI50 [34]: > 100 µM (inactive)
- GI50 [35]: > 100 µM (inactive)
- GI50 [36]: > 100 µM (inactive)
- GI50 [37]: > 100 µM (inactive)
- GI50 [38]: 50 µM (inactive)
- GI50 [39]: > 100 µM (inactive)
- GI50 [40]: > 100 µM (inactive)
- GI50 [41]: > 100 µM (inactive)
- GI50 [42]: > 100 µM (inactive)
- GI50 [43]: > 100 µM (inactive)
- GI50 [44]: > 100 µM (inactive)
- GI50 [45]: > 100 µM (inactive)
- GI50 [46]: > 100 µM (inactive)
- GI50 [47]: > 100 µM (inactive)
- GI50 [48]: > 100 µM (inactive)
- GI50 [49]: 77.1 µM (inactive)
- GI50 [50]: > 100 µM (inactive)
- GI50 [51]: > 100 µM (inactive)
- GI50 [52]: > 100 µM (inactive)

Compound: O=C1N[C@@H](Cc2ccccc2)C(=O)N2CCC[C@@H]2C(=O)N[C@@H](CCCCCC(=O)[C@@H]2CO2)C(=O)N[C@H]1Cc1ccccc1 [TRAPOXIN B] (cyclo(FF[dP][Aoe]))
- GI50 [1]: 0.0104 µM (active)
- GI50 [2]: 0.00294 µM (active)
- GI50 [3]: 0.00368 µM (active)
- GI50 [5]: 0.00157 µM (active)
- GI50 [6]: 0.00197 µM (active)
- GI50 [7]: 0.0145 µM (active)
- GI50 [8]: < 0.000212 µM (active)
- GI50 [9]: 0.0034 µM (active)
- GI50 [10]: 0.000735 µM (active)
- GI50 [11]: < 0.000212 µM (active)
- GI50 [12]: 0.000497 µM (active)
- GI50 [13]: 0.000332 µM (active)
- GI50 [14]: 0.00574 µM (active)
- GI50 [15]: 0.0119 µM (active)
- GI50 [16]: 0.103 µM (active)
- GI50 [17]: 0.221 µM (active)
- GI50 [18]: 0.05 µM (active)
- GI50 [19]: 0.00116 µM (active)
- GI50 [53]: 0.553 nM (active)
- GI50 [20]: 0.518 µM (active)
- GI50 [21]: 0.00209 µM (active)
- GI50 [22]: 0.0632 µM (active)
- GI50 [23]: 0.000472 µM (active)
- GI50 [24]: 0.000305 µM (active)
- GI50 [25]: 0.00209 µM (active)
- GI50 [26]: 0.000778 µM (active)
- GI50 [27]: 0.00052 µM (active)
- GI50 [28]: 0.000597 µM (active)
- GI50 [29]: 0.000512 µM (active)
- GI50 [30]: 0.00265 µM (active)
- GI50 [31]: 43.1 nM
- GI50 [32]: < 0.000212 µM (active)
- GI50 [33]: 0.000435 µM (active)
- GI50 [54]: 34.3 nM (active)
- GI50 [35]: < 0.000212 µM (active)
- GI50 [36]: 0.389 µM (active)
- GI50 [37]: 0.000713 µM (active)
- GI50 [55]: 11 nM (active)
- GI50 [38]: 0.0475 µM (active)
- GI50 [39]: 0.00124 µM (active)
- GI50 [40]: 0.000256 µM (active)
- GI50 [56]: < 0.212 nM (active)
- GI50 [41]: 0.000685 µM (active)
- GI50 [42]: 0.000546 µM (active)
- GI50 [44]: 0.019 µM (active)
- GI50 [45]: 0.161 µM (active)
- GI50 [46]: 0.0151 µM (active)
- GI50 [47]: 0.222 µM (active)
- GI50 [48]: 0.00136 µM (active)
- GI50 [49]: 0.00366 µM (active)
- GI50 [50]: 0.00122 µM (active)
- GI50 [51]: < 0.000212 µM (active)
- GI50 [52]: 0.0027 µM (active)
